This passage reports EC50 and inhibition results from patent publication US10604514B2, “6-(5-membered heteroaryl)isoquinolin-3-yl carboxamides and preparation and use thereof” (Samumed, LLC, priority 2017, dated 2020).

Read-outs that look alike come from different tables or passages of the source. A value given as a limit tells only on which side of the number the result lay.

The test system of experiment [1] is Wnt activity (Sp5-Luc reporter in SW480 colon carcinoma cells). Put plainly: Wnt activity screening assay (Sp5-Luc reporter gene assay). It counts as cell-based, human. The procedure, abridged: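 Compounds at 10 points (1:3 steps, top 10 μM, 0.1% DMSO final) were incubated 36 to 48 h at 37° C with stable Sp5-Luc SW480 reporter cells in 1% FBS medium. Luciferase luminescence was then read and expressed relative to DMSO-only cells. Four-parameter variable-slope fitting yielded EC50 values.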
(In general: Reporter assays use an easily measured gene product as a stand-in for the process of interest.)

For experiment [2], the target named is GSK3β kinase (Homo sapiens (Human), UniProt P49841). Put plainly: GSK3β kinase assay (Ser/Thr 09 peptide Z-lyte, FRET).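 Note: Coumarin/fluorescein emission ratio converted to percent phosphorylation against unphosphorylated (0%) and phosphorylated (100%) controls, 1 h compound incubation at room temperature, 11-point threefold dilutions from 10 µM, run in duplicate.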 In kind it is biochemical. The following applies: method text calls the value IC50.
GSK3β kinase, sequence (P49841 whole entry): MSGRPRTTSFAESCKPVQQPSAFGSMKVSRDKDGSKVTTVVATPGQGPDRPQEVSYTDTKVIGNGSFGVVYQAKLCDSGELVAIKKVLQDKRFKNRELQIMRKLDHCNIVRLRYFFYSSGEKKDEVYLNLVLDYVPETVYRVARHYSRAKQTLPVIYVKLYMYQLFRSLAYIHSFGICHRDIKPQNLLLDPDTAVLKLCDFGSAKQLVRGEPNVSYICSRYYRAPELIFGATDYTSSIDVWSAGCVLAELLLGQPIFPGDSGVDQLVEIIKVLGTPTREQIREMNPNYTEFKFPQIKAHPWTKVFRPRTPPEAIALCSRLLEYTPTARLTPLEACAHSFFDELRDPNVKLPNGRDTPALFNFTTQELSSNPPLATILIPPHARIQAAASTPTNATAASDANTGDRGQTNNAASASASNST
For experiment [3], the system named is Tau phosphorylation at Ser396 (pSer396), SH-SY5Y cells. Description: Tau phosphorylation at Ser396 (pSer396) in SH-SY5Y cells, ELISA/western blot.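 Note: cell lysates probed for reduced Tau pSer396 via ELISA (colorimetric) or western blot (chemiluminescence), both with one shared pSer396 antibody, EC50 for lowering phosphorylation.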 In kind it is cell-based, human. To be noted: Homo sapiens. In general terms: In an ELISA, binding on a coated surface is turned into a signal by an enzyme label.
The subject of experiment [4] is SW480 colon carcinoma cells. Put plainly: Cell viability assay (CellTiter-Glo) in SW480 cells.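 Note: SW480 cells stably carrying an Sp5-luciferase TCF/LEF reporter, luminescent ATP signal as viability measure, DMSO-treated cells as control.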 It counts as cell-based, human. In general terms: Cellular ATP, detected with luciferase, serves as a proxy for viable cell number.
Method: Representative compounds were screened using the assay procedure to assess the effect on cell viability as described below.
SW480 colon carcinoma cells were transduced with a lentiviral vector expressing luciferase with a human Sp5 promoter consisting of a sequence of eight TCF/LEF binding sites. SW480 cells stably expressing the Sp5-Luc reporter gene and a hygromycin resistance gene were selected by treatment with 150 μg/mL of hygromycin for 7 days. These stably transduced SW480 cells were expanded in cell culture and used for all further screening activities. Each compound was dissolved in DMSO as a 10 mM stock and used to prepare compound source plates.
For the Cell Viability Assays, the cells were plated at 2,000 cells/well in 384-well plates with a DMEM medium containing 1% fetal bovine serum, and 1% Penicillin-Streptomycin and incubated for four days hours at 37° C. and 5% CO2. Eight replicates of DMSO-treated cells served as controls and cells treated with compound were performed in duplicate.
After incubation, 10 μL of CellTiter-Glo (Promega) was added to each well allowed to incubate for approximately 12 minutes.
Dose-response curves were generated and EC50 concentration values were calculated using non-linear regression curve fit in the GraphPad Prism (San Diego, Calif.) or Dotmatics' Studies Software (Bishops Stortford, UK).
Experiment [5] deals with LL29 cells (primary human fibroblasts derived from IPF patients), α-smooth muscle actin. Put plainly: Inhibition of fibrotic process: αSMA in TGF-β1-treated primary human fibroblasts from IPF patients (LL29 cells). It counts as cell-based. To be noted: Homo sapiens, Fibroblast; for EC50: 96 h, % αSMA-positive LL29 cells, TGF-β1 20 ng/mL, 4 days; for inhibition at 10 µM: read-out: percent inhibition at 10 μM. The procedure, abridged: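 Read-out is the percentage of αSMA-positive cells by high-content imaging, excluding SYTOX green-positive dead/apoptotic cells, normalized to TGF-β1-only wells on the same plate. LL29 cells were exposed for 4 days at 37 °C to 20 ng/mL TGF-β1 plus 11-point, 2-fold compound dilutions in 0.1% DMSO.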

For experiment [6], the system named is IL-6. Description: IL-6 inhibition in LPS-stimulated human peripheral blood mononuclear cells (HTRF). It counts as cell-based. The following applies: Homo sapiens, PBMC; for EC50: IL-6, LPS-stimulated huPBMCs, HTRF; for inhibition at 10 µM: read-out: percent value in parentheses below EC50 >10. The procedure, abridged:
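EC50 from a 4-parameter fit of DMSO-normalized HTRF (665/620 nm) IL-6 signal, duplicates. Compound was added to fresh human PBMCs in 1% FBS RPMI for 2 h (top 10 μM, 3-fold, 0.25% DMSO) before 22 h stimulation with LPS at 50 ng/mL, 37 °C.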

Experiment [7] has as its target DYRK1A kinase (Homo sapiens (Human), UniProt Q13627). Description: DYRK1A kinase assay (Ser/Thr 18 peptide Z-lyte, FRET).
The mark [8] stands for this setting: Homo sapiens; Sp5-Luc reporter, SW480 cells, 36 to 48 hours.
Setting [9] is: SH-SY5Y cells, overnight (16-18 h), read-out: pSer396 Tau EC50.
[10] abbreviates: Homo sapiens, 96 h; cell viability, SW480 cells, four days, CellTiter-Glo.
Setting [11] is: DYRK1A kinase, method text calls the value IC50.
The mark [12] stands for this setting: Homo sapiens, SW480, read-out: percent inhibition at 10 μM.
[13] abbreviates: Homo sapiens, SW480; read-out: percent inhibition at 10 μM.

As usually defined, the EC50 is the concentration needed to bring the measured effect to its halfway point. Take `[2H]c1c([2H])c(C(=O)Nc2cc3cc(-c4cncn4C)ccc3cn2)c([2H])c([2H])c1C` [Compound 85, 4-Methyl-N-(6-(1-methyl-1H-imidazol-5-yl)isoquinolin-3-yl)benzamide-2,3,5,6-d4]: the EC50 amounted to 233 nM in experiment [1] (setting [8]); 847 nM in experiment [2]; 1.4 µM in experiment [3] (setting [9]); 487 nM in experiment [4] (setting [10]); 557 nM in experiment [5]; 1220 nM in experiment [6]. For the same molecule, in experiment [7], the EC50 was found to be 2 nM.
For the molecule `Cn1cc(-c2cc(F)c3cnc(NC(=O)[C@H]4CC[C@@H](N5CCOCC5)CC4)cc3c2)cn1` [Compound 97, cis-N-(8-Fluoro-6-(1-methyl-1H-pyrazol-4-yl)isoquinolin-3-yl)-4-morpholinocyclohexane-1-carboxamide], the EC50 in experiment [1] (setting [8]) turned out to be 1470 nM; in experiment [2] it was 20 nM; in experiment [3] (setting [9]) it was 0.184 µM; in experiment [4] (setting [10]) it was 806 nM; in experiment [5], 200 nM; in experiment [6] it was 365 nM. In addition, the response in experiment [7] (setting [11]) was half-maximal at 14 nM (EC50).
Regarding `Cn1cc(-c2cc(F)c3cnc(NC(=O)[C@H]4CC[C@H](N5CCOCC5)CC4)cc3c2)cn1` [Compound 3, trans-N-(8-Fluoro-6-(1-methyl-1H-pyrazol-4-yl)isoquinolin-3-yl)-4-morpholinocyclohexane-1-carboxamide], the EC50 in experiment [1] (setting [8]) was determined as 1860 nM; in experiment [2] it was 131 nM; in experiment [3] (setting [9]), 0.458 µM; in experiment [4] (setting [10]), 6670 nM; in experiment [5], 153 nM; in experiment [6] it was 1120 nM. In experiment [7] (setting [11]), this molecule came in with an EC50 of 4 nM.
`[2H]c1c([2H])c(C(=O)Nc2cc3cc(-c4cncn4C)ccc3cn2)c([2H])c([2H])c1OC([2H])([2H])[2H]` [Compound 88, 4-(Methoxy-d3)-N-(6-(1-methyl-1H-imidazol-5-yl)isoquinolin-3-yl) benzamide-2,3,5,6-d4]: the concentration for a half-maximal effect (EC50) amounted to 179 nM in experiment [1] (setting [8]); 1010 nM in experiment [2]; 0.016 µM in experiment [3] (setting [9]); 480 nM in experiment [4] (setting [10]); 311 nM in experiment [5]; 1200 nM in experiment [6]. The EC50 in experiment [7] came to 2 nM.
For the molecule `Cc1nnc(-c2ccc3cnc(NC(=O)N4CC5CCC(C4)N5C)cc3c2)s1` [Compound 110, 8-Methyl-N-(6-(5-methyl-1,3,4-thiadiazol-2-yl)isoquinolin-3-yl)-3,8-diazabicyclo[3.2.1]octane-3-carboxamide], the inhibition at 10 µM in experiment [1] (setting [12]) was 24.5%; in experiment [4] (setting [12]) it was 1.5%; in experiment [6] it was 7%. Moreover, the EC50 in experiment [1] (setting [8]) is more than 10000 nM; in experiment [2], 314 nM; in experiment [3] (SH-SY5Y, read-out: pSer396 Tau EC50 (μM)) it was 2.1 µM; in experiment [4] (setting [10]), more than 10000 nM; in experiment [5], 1970 nM; in experiment [6], more than 10000 nM. Besides, the EC50 in experiment [7] (setting [11]) amounted to 17 nM.
On to `CN[C@H]1CC[C@H](C(=O)Nc2cc3cc(-c4cnc(C)o4)ccc3cn2)CC1` [Compound 16, trans-4-(Methylamino)-N-(6-(2-methyloxazol-5-yl)isoquinolin-3-yl) cyclohexane-1-carboxamide], for which the EC50 in experiment [1] (setting [8]) amounted to 1460 nM; in experiment [2], 122 nM; in experiment [3] (setting [9]), 0.286 µM; in experiment [4] (setting [10]), 808 nM; in experiment [5], 172 nM; in experiment [6] it was 1040 nM. This molecule came in with a concentration for a half-maximal effect (EC50) in experiment [7] (setting [11]) of 5 nM.
For `Cc1nnc(-c2ccc3cnc(NC(=O)C4CCN(CC(C)(F)F)CC4)cc3c2)s1` [Compound 28, 1-(2,2-Difluoropropyl)-N-(6-(5-methyl-1,3,4-thiadiazol-2-yl)isoquinolin-3-yl)piperidine-4-carboxamide], the EC50 in experiment [1] (setting [8]) is 1110 nM; in experiment [2] it was 8 nM; in experiment [3] (setting [9]), 0.089 µM; in experiment [4] (setting [10]), more than 10000 nM; in experiment [5], 448 nM; in experiment [6], more than 10000 nM. The same molecule registered a 50% effective concentration (EC50) in experiment [7] (setting [11]) of 4 nM. The inhibition at 10 µM in experiment [4] (setting [13]) is 37.8%; in experiment [6] it was 4.3%.
Regarding `Cc1nnc(-c2ccc3cnc(NC(=O)N(C)C4CCN(C)CC4)cc3c2)s1` [Compound 29, 1-Methyl-3-(6-(5-methyl-1,3,4-thiadiazol-2-yl)isoquinolin-3-yl)-1-(1-methylpiperidin-4-yl)urea], the inhibition at 10 µM in experiment [1] (setting [13]) came out at 45.6%; in experiment [4] (setting [13]), 28.2%; in experiment [5], 3.2%; in experiment [6], 6%. Also, the EC50 in experiment [1] (setting [8]) was more than 10000 nM; in experiment [2] it was 337 nM; in experiment [3] (setting [9]), 3.4 µM; in experiment [4] (setting [10]) it was more than 10000 nM; in experiment [5], more than 10000 nM; in experiment [6] it was more than 10000 nM. Further, the 50% effective concentration (EC50) in experiment [7] (setting [11]) worked out at 18 nM.
With `Cc1ncc(-c2ccc3cnc(NC(=O)N4CCOCC4)cc3c2)n1C` [Compound 13, N-(6-(1,2-Dimethyl-1H-imidazol-5-yl)isoquinolin-3-yl)morpholine-4-carboxamide], the EC50 in experiment [1] (setting [8]) was 3700 nM; in experiment [2], 1250 nM; in experiment [3] (setting [9]), 4.7 µM; in experiment [4] (setting [10]), 3510 nM; in experiment [5], more than 10000 nM; in experiment [6], more than 10000 nM. The molecule also displayed an EC50 in experiment [7] (setting [11]) of 13 nM. The figures for the inhibition at 10 µM in experiment [5] and in experiment [6] were 38.2% and 17.6%, respectively.
As for `COC1CCN(CC(=O)Nc2cc3cc(-c4nnc(C)s4)ccc3cn2)CC1` [Compound 49, 2-(4-Methoxypiperidin-1-yl)-N-(6-(5-methyl-1,3,4-thiadiazol-2-yl)isoquinolin-3-yl)acetamide], the figures for the inhibition at 10 µM in experiment [1] (setting [13]) and in experiment [6] were 32.9% and 9%, respectively. Also, the EC50 is more than 10000 nM in experiment [1] (setting [8]); 6 nM in experiment [2]; 0.135 µM in experiment [3] (setting [9]); 2900 nM in experiment [4] (setting [10]); 643 nM in experiment [5]; more than 10000 nM in experiment [6]. Also, the response in experiment [7] (setting [11]) was half-maximal at 21 nM (EC50).
For the molecule `Cc1nnc(-c2ccc3cnc(NC(=O)N4CC[C@H](N(C)C)[C@@H](F)C4)cc3c2)s1` [Compound 34, (3S,4S)-4-(dimethylamino)-3-fluoro-N-(6-(5-methyl-1,3,4-thiadiazol-2-yl)isoquinolin-3-yl)piperidine-1-carboxamide], the EC50 in experiment [1] (setting [8]) is 3360 nM; in experiment [2] it was 46 nM; in experiment [3] (setting [9]), 0.456 µM; in experiment [4] (setting [10]) it was 3760 nM; in experiment [5], more than 10000 nM; in experiment [6], more than 10000 nM. Further, in experiment [7] (setting [11]), the EC50 came out at 15 nM. For the same molecule, the inhibition at 10 µM was found to be 48.5% in experiment [5] and 7% in experiment [6].
On to `[2H]C([2H])([2H])Oc1ccc(C(=O)Nc2cc3cc(-c4cnc(C)n4C)ccc3cn2)cc1` [Compound 164, N-(6-(1,2-Dimethyl-1H-imidazol-5-yl)isoquinolin-3-yl)-4-(methoxy-d3) benzamide], for which the 50% effective concentration (EC50) in experiment [1] (setting [8]) is 638 nM; in experiment [2] it was 4580 nM; in experiment [3] (setting [9]) it was more than 10 µM; in experiment [4] (setting [10]), 782 nM; in experiment [5], 1480 nM; in experiment [6], 3390 nM. The same molecule showed an EC50 in experiment [7] of 11 nM.
